# Reference: patent publication US20170143701A1, “CARBOHYDRATE METABOLISM-AMELIORATING AGENT” (SUNTORY HOLDINGS LIMITED, priority 2014, published 2017)
# System: NCI-H716 cells
# Assay: In vitro GLP-1 secretion-accelerating action: amount of active GLP-1 secreted (ELISA)
# Assay type: cell-based
# Conditions: 1 hour; for Significant difference (p < 0.05) vs control group, amount of active GLP-1 secreted: 10 mM, Student's t-test; for Amount of active GLP-1 secreted (relative value to control group as 100), average value: cyclic dipeptide 10 mM with 10 μM Sitagliptin phosphate, group with no cyclic dipeptide = 100
# Experimental: Among the cyclic dipeptides, 92 highly water-soluble cyclic dipeptides were used in the following experiment. In each well of a Poly-L-Lysine 96-well plate, NCI-H716 cells suspended in 100 μL of a DMEM (with 10% FBS, 2 mM glutamine, and 1% antibiotics added in advance) were seeded at 0.5×10^5 cells/well, and cultured in a CO2 incubator (manufactured by ESPEC CORP.) for 48 hours. After washing with PBS(+), 100 μL of a PBS(+) solution with each cyclic dipeptide at a final concentration of 10 mM and 10 μM of Sitagliptin phosphate added therein was added to the cells. After 1 hour, the resultant solution was recovered, and the amount of active GLP-1 in the solution was measured by using the ELISA kit. In the analysis, the amount of active GLP-1 for a group with no cyclic dipeptide added was defined as 100, and relative values thereto were used.
compound,measurement,setting,value
"C[C@H](O)[C@@H]1NC(=O)[C@H](CCCN=C(N)N)NC1=O [compound 168, Cyclo(Arg-Thr)]","Significant difference (p < 0.05) vs control group, amount of active GLP-1 secreted","Table 3, Experiment 3",No
same,"Amount of active GLP-1 secreted (relative value to control group as 100), average value","Table 3, Experiment 3",142
"O=C1NC(Cc2cnc[nH]2)C(=O)NC1Cc1cnc[nH]1 (centres unmarked) [compound 107, cyclo-histidyl-histidine]","Significant difference (p < 0.05) vs control group, amount of active GLP-1 secreted","Table 3, Experiment 3",Yes
same,"Amount of active GLP-1 secreted (relative value to control group as 100), average value","Table 3, Experiment 3",182
"O=C1CNC(=O)[C@H](Cc2cnc[nH]2)N1 [compound 27, Cyclo(Gly-His)]","Significant difference (p < 0.05) vs control group, amount of active GLP-1 secreted","Table 5, Experiment 5",No
same,"Amount of active GLP-1 secreted (relative value to control group as 100), average value","Table 5, Experiment 5",82
"C[C@H](O)[C@@H]1NC(=O)[C@H](CC(=O)O)NC1=O [compound 165, Cyclo(Asp-Thr)]","Significant difference (p < 0.05) vs control group, amount of active GLP-1 secreted","Table 3, Experiment 3",No
same,"Amount of active GLP-1 secreted (relative value to control group as 100), average value","Table 3, Experiment 3",140
"NC(=O)C[C@@H]1NC(=O)[C@H](CCC(=O)O)NC1=O [compound 129, Cyclo(Asn-Glu)]","Significant difference (p < 0.05) vs control group, amount of active GLP-1 secreted","Table 3, Experiment 3",No
same,"Amount of active GLP-1 secreted (relative value to control group as 100), average value","Table 3, Experiment 3",118
"NC(=O)CC1NC(=O)C2CCCN2C1=O (centres unmarked) [compound 201, cyclo-asparaginyl-proline]","Significant difference (p < 0.05) vs control group, amount of active GLP-1 secreted","Table 4, Experiment 4",Yes
same,"Amount of active GLP-1 secreted (relative value to control group as 100), average value","Table 4, Experiment 4",430
"O=C1NC(Cc2c[nH]c3ccccc23)C(=O)NC1CO (centres unmarked) [compound 78, Cyclo(Trp-Ser)]","Significant difference (p < 0.05) vs control group, amount of active GLP-1 secreted","Table 2, Experiment 2",No
same,"Amount of active GLP-1 secreted (relative value to control group as 100), average value","Table 2, Experiment 2",119
"CC(O)C1NC(=O)C(CCC(=O)O)NC1=O (centres unmarked) [compound 157, Cyclo(Thr-Glu)]","Significant difference (p < 0.05) vs control group, amount of active GLP-1 secreted","Table 3, Experiment 3",No
same,"Amount of active GLP-1 secreted (relative value to control group as 100), average value","Table 3, Experiment 3",139
"NC(=O)CCC1NC(=O)C(CCC(N)=O)NC1=O (centres unmarked) [compound 176, Cyclo(Gln-Gln)]","Significant difference (p < 0.05) vs control group, amount of active GLP-1 secreted","Table 4, Experiment 4",No
same,"Amount of active GLP-1 secreted (relative value to control group as 100), average value","Table 4, Experiment 4",111
"NCCCC[C@@H]1NC(=O)[C@H](CO)NC1=O [compound 98, cyclo-seryl-lysine]","Significant difference (p < 0.05) vs control group, amount of active GLP-1 secreted","Table 3, Experiment 3",Yes
same,"Amount of active GLP-1 secreted (relative value to control group as 100), average value","Table 3, Experiment 3",71
"C[C@H]1NC(=O)[C@@H]2CCCN2C1=O [compound 5, Cyclo(D-Ala-Pro)]","Significant difference (p < 0.05) vs control group, amount of active GLP-1 secreted","Table 1, Experiment 1",No
same,"Amount of active GLP-1 secreted (relative value to control group as 100), average value","Table 1, Experiment 1",113
"C[C@@H]1NC(=O)[C@H](CC(=O)O)NC1=O [compound 153, Cyclo(Asp-Ala)]","Significant difference (p < 0.05) vs control group, amount of active GLP-1 secreted","Table 3, Experiment 3",No
same,"Amount of active GLP-1 secreted (relative value to control group as 100), average value","Table 3, Experiment 3",94
"CC1NC(=O)C(C(C)O)NC1=O (centres unmarked) [compound 114, Cyclo(Thr-Ala)]","Significant difference (p < 0.05) vs control group, amount of active GLP-1 secreted","Table 3, Experiment 3",No
same,"Amount of active GLP-1 secreted (relative value to control group as 100), average value","Table 3, Experiment 3",89
"CC(C)C[C@@H]1NC(=O)[C@@H]2CCCN2C1=O [compound 19, cyclo-leucyl-proline]","Significant difference (p < 0.05) vs control group, amount of active GLP-1 secreted","Table 1, Experiment 1",Yes
same,"Amount of active GLP-1 secreted (relative value to control group as 100), average value","Table 1, Experiment 1",173
"NC(=O)C[C@@H]1NC(=O)[C@H](CC(=O)O)NC1=O [compound 170, Cyclo(Asn-Asp)]","Significant difference (p < 0.05) vs control group, amount of active GLP-1 secreted","Table 3, Experiment 3",No
same,"Amount of active GLP-1 secreted (relative value to control group as 100), average value","Table 3, Experiment 3",125
"CC(O)C1NC(=O)CNC1=O (centres unmarked) [compound 116, Cyclo(Thr-Gly)]","Significant difference (p < 0.05) vs control group, amount of active GLP-1 secreted","Table 3, Experiment 3",No
same,"Amount of active GLP-1 secreted (relative value to control group as 100), average value","Table 3, Experiment 3",146
"O=C1NCC(=O)N2CC(O)CC12 (centres unmarked) [compound 73, Cyclo(Hyp-Gly)]","Significant difference (p < 0.05) vs control group, amount of active GLP-1 secreted","Table 2, Experiment 2",No
same,"Amount of active GLP-1 secreted (relative value to control group as 100), average value","Table 2, Experiment 2",121
"NCCCC[C@@H]1NC(=O)[C@@H]2CCCN2C1=O [compound 58, Cyclo(Lys-Pro)]","Significant difference (p < 0.05) vs control group, amount of active GLP-1 secreted","Table 2, Experiment 2",No
same,"Amount of active GLP-1 secreted (relative value to control group as 100), average value","Table 2, Experiment 2",91
"C[C@H](O)[C@@H]1NC(=O)[C@H](CCC(N)=O)NC1=O [compound 167, Cyclo(Gln-Thr)]","Significant difference (p < 0.05) vs control group, amount of active GLP-1 secreted","Table 3, Experiment 3",No
same,"Amount of active GLP-1 secreted (relative value to control group as 100), average value","Table 3, Experiment 3",156
"CC[C@H](C)[C@@H]1NC(=O)[C@@H]2CCCN2C1=O [compound 47, Cyclo(Ile-Pro)]","Significant difference (p < 0.05) vs control group, amount of active GLP-1 secreted","Table 2, Experiment 2",No
same,"Amount of active GLP-1 secreted (relative value to control group as 100), average value","Table 2, Experiment 2",79
"CC(C)[C@@H]1NC(=O)[C@H](CCCCN)NC1=O [compound 99, cyclo-valyl-lysine]","Significant difference (p < 0.05) vs control group, amount of active GLP-1 secreted","Table 3, Experiment 3",Yes
same,"Amount of active GLP-1 secreted (relative value to control group as 100), average value","Table 3, Experiment 3",532
"NCCCCC1NC(=O)C(CCCCN)NC1=O (centres unmarked) [compound 40, Cyclo(Lys-Lys)]","Significant difference (p < 0.05) vs control group, amount of active GLP-1 secreted","Table 1, Experiment 1",No
same,"Amount of active GLP-1 secreted (relative value to control group as 100), average value","Table 1, Experiment 1",164
"NC(=O)CC[C@@H]1NC(=O)CNC1=O [compound 126, cyclo-glutaminyl-glycine]","Significant difference (p < 0.05) vs control group, amount of active GLP-1 secreted","Table 3, Experiment 3",Yes
same,"Amount of active GLP-1 secreted (relative value to control group as 100), average value","Table 3, Experiment 3",210
"NC(=O)CC[C@@H]1NC(=O)[C@H](CCC(=O)O)NC1=O [compound 130, Cyclo(Gln-Glu)]","Significant difference (p < 0.05) vs control group, amount of active GLP-1 secreted","Table 3, Experiment 3",No
same,"Amount of active GLP-1 secreted (relative value to control group as 100), average value","Table 3, Experiment 3",120
"N=C(N)NCCC[C@@H]1NC(=O)[C@H](CC(N)=O)NC1=O [compound 197, cyclo-asparaginyl-arginine]","Significant difference (p < 0.05) vs control group, amount of active GLP-1 secreted","Table 4, Experiment 4",Yes
same,"Amount of active GLP-1 secreted (relative value to control group as 100), average value","Table 4, Experiment 4",359
"CSCCC1NC(=O)C(CC(=O)O)NC1=O (centres unmarked) [compound 172, Cyclo(Met-Asp)]","Significant difference (p < 0.05) vs control group, amount of active GLP-1 secreted","Table 4, Experiment 4",No
same,"Amount of active GLP-1 secreted (relative value to control group as 100), average value","Table 4, Experiment 4",141
"NC(=O)CC[C@@H]1NC(=O)CNC1=O [compound 24, Cyclo(Gln-Gly)]","Significant difference (p < 0.05) vs control group, amount of active GLP-1 secreted","Table 5, Experiment 5",No
same,"Amount of active GLP-1 secreted (relative value to control group as 100), average value","Table 5, Experiment 5",89
"NC(=O)CC[C@@H]1NC(=O)CNC1=O [compound 36, Cyclo(Gln-Gly)]","Significant difference (p < 0.05) vs control group, amount of active GLP-1 secreted","Table 5, Experiment 5",No
same,"Amount of active GLP-1 secreted (relative value to control group as 100), average value","Table 5, Experiment 5",75
"NCCCC[C@@H]1NC(=O)[C@H](CCC(N)=O)NC1=O [compound 102, Cyclo(Gln-Lys)]","Significant difference (p < 0.05) vs control group, amount of active GLP-1 secreted","Table 3, Experiment 3",No
same,"Amount of active GLP-1 secreted (relative value to control group as 100), average value","Table 3, Experiment 3",112
"C[C@@H]1NC(=O)[C@H](CCC(N)=O)NC1=O [compound 23, Cyclo(Ala-Gln)]","Significant difference (p < 0.05) vs control group, amount of active GLP-1 secreted","Table 5, Experiment 5",No
same,"Amount of active GLP-1 secreted (relative value to control group as 100), average value","Table 5, Experiment 5",99
"O=C(O)CCC1NC(=O)C(CO)NC1=O (centres unmarked) [compound 192, cyclo-seryl-glutamic acid]","Significant difference (p < 0.05) vs control group, amount of active GLP-1 secreted","Table 4, Experiment 4",Yes
"C[C@@H]1NC(=O)[C@H](CC(N)=O)NC1=O [compound 124, Cyclo(Asn-Ala)]","Significant difference (p < 0.05) vs control group, amount of active GLP-1 secreted","Table 3, Experiment 3",No
same,"Amount of active GLP-1 secreted (relative value to control group as 100), average value","Table 3, Experiment 3",116
"N=C(N)NCCC[C@@H]1NC(=O)[C@H](Cc2c[nH]c3ccccc23)NC1=O [compound 189, cyclo-tryptophanyl-arginine]","Significant difference (p < 0.05) vs control group, amount of active GLP-1 secreted","Table 4, Experiment 4",Yes
same,"Amount of active GLP-1 secreted (relative value to control group as 100), average value","Table 4, Experiment 4",314
